Paper PMC8436250 (Nature structural & molecular biology, 2019)

Experiments:
ATP-citrate lyase (ACLY) [1] = biological target: T1, ATP-citrate lyase (ACLY) (Homo sapiens, UniProt P53396); assay: steady-state intrinsic fluorescence titration, one-site fit; format: binding
T1 sequence (P53396 1-1101): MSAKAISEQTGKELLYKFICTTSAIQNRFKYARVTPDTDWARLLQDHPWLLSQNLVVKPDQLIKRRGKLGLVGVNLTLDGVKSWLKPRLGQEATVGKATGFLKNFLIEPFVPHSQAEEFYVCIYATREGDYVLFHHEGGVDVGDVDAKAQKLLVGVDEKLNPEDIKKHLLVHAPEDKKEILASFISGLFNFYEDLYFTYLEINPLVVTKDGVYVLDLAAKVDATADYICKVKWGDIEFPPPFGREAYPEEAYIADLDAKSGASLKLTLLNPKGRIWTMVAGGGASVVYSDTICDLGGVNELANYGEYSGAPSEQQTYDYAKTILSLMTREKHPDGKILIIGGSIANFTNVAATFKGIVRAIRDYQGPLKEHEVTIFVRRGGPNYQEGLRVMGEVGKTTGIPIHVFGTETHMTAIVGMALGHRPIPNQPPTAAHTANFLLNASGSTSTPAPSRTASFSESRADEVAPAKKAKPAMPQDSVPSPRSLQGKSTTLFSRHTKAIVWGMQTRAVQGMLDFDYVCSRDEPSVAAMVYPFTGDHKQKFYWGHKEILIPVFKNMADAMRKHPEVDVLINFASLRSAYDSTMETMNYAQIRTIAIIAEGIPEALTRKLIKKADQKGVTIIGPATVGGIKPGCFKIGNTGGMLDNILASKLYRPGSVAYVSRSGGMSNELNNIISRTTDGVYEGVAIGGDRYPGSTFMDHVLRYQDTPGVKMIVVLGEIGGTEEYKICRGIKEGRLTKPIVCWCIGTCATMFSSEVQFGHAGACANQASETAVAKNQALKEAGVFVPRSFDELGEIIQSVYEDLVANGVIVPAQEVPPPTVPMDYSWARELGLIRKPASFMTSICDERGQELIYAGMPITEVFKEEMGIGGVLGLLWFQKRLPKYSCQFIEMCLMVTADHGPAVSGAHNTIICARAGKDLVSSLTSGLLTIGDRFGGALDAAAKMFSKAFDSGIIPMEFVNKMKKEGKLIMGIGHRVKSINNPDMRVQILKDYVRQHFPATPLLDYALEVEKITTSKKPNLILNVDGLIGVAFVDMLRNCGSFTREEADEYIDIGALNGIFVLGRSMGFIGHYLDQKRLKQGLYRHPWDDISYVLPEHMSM

ATP-citrate lyase (ACLY) [2] = biological target: T1, ATP-citrate lyase (ACLY); assay: cryo-EM structure; format: binding
ATP-citrate lyase (ACLY) [3] = biological target: T1, ATP-citrate lyase (ACLY); assay: cryo-EM structure; format: binding; remark: listed apart in the source
ATP-citrate lyase (ACLY) [4] = biological target: T1, ATP-citrate lyase (ACLY); assay: cryo-EM structure; format: binding; remark: listed apart in the source
ATP-citrate lyase (ACLY) [5] = biological target: T2, ATP-citrate lyase (ACLY) (Homo sapiens, UniProt P53396, E599Q); assay: cryo-EM structure; format: binding
T2 sequence (P53396 1-1101 E599Q): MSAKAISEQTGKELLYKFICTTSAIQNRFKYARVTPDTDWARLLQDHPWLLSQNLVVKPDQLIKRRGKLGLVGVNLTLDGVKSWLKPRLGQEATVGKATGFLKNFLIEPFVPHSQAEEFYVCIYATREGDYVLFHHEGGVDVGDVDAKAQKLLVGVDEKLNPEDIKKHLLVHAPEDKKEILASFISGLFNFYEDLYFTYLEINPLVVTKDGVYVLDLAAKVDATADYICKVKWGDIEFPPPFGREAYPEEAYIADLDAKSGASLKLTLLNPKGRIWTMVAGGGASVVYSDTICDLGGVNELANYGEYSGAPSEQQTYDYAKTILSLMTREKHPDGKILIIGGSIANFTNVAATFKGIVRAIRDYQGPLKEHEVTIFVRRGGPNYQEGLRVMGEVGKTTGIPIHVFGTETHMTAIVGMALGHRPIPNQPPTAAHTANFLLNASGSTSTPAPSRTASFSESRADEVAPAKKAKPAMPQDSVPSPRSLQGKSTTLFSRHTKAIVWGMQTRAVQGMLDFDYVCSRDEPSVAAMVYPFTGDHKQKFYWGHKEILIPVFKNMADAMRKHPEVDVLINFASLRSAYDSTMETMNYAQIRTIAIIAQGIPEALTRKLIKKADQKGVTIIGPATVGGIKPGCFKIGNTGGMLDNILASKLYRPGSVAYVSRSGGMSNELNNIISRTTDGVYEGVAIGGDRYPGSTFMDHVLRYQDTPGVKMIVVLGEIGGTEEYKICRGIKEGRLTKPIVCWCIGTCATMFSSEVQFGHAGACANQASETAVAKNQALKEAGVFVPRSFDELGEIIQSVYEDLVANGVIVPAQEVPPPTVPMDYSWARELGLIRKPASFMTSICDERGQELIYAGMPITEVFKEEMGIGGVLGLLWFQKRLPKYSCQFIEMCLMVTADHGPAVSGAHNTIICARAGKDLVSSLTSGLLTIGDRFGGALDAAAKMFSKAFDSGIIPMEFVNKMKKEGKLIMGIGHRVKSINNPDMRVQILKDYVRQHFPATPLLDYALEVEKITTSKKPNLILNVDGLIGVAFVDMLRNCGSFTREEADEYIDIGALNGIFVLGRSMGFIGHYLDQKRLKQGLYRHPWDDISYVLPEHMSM

[6] = biological target: T3, ATP-citrate lyase (ACLY), full length human, wild type (human), P53396; assay: cryo-EM structure; details: remark: other sources report otherwise
T3 chain: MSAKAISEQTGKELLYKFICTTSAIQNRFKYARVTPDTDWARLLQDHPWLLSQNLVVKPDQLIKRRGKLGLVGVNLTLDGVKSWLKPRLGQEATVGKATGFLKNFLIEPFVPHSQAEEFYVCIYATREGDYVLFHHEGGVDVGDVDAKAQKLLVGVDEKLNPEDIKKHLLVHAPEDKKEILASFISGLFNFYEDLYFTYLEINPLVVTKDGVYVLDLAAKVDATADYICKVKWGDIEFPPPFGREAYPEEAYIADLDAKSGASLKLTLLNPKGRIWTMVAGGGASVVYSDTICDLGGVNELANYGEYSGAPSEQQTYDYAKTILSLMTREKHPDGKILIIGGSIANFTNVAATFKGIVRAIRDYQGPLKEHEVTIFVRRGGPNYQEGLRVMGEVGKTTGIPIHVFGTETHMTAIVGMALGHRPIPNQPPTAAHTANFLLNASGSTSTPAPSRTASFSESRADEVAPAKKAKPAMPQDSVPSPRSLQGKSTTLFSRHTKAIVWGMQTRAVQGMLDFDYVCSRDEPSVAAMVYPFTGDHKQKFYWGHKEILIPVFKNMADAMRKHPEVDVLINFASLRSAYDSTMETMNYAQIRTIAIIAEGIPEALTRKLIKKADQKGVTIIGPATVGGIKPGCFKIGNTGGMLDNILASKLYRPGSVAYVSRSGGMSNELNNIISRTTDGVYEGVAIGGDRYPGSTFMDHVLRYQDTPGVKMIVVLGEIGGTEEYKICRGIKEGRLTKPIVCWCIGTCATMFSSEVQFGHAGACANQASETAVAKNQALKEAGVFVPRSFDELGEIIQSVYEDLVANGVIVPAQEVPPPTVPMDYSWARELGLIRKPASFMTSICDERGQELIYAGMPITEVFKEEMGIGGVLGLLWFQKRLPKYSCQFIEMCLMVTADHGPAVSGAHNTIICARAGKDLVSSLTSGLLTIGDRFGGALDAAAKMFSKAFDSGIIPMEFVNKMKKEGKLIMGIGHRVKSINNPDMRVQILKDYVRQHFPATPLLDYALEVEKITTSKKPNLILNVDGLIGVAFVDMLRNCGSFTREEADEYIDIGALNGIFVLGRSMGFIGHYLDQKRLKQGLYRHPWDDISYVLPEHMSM

cryo-EM structure = biological target: the molecule itself; assay: cryo-EM structure

Molecule: O=C(O)CC(O)(CC(=O)O)C(=O)O [citrate]
- Kd (ATP-citrate lyase (ACLY) [1]): 3.4 ± 0.5 µM

Molecule: O=C(O)CC(=O)C(=O)O [OAA, oxaloacetate]
- Kd (ATP-citrate lyase (ACLY) [2]): 15 ± 4 µM

Molecule: CC(C)(COP(=O)(O)OP(=O)(O)OC[C@H]1O[C@@H](n2cnc3c(N)ncnc32)[C@H](O)[C@@H]1OP(=O)(O)O)[C@@H](O)C(=O)NCCC(=O)NCCS [CoA, Coenzyme A]
- cryo-EM structure (3.0 Å, D2) (ATP-citrate lyase (ACLY) [3]): CoA binds at the interface between the CSH and ASH domains of separate subunits

Molecule: CC(=O)SCCNC(=O)CCNC(=O)[C@H](O)C(C)(C)COP(=O)(O)OP(=O)(O)OC[C@H]1O[C@@H](n2cnc3c(N)ncnc32)[C@H](O)[C@@H]1OP(=O)(O)O [acetyl-CoA]
- cryo-EM structure (3.1 Å, D2) with OAA; DSF stabilization (ATP-citrate lyase (ACLY) [4]): acetyl-CoA occupied the same binding site as CoA and was also stabilized by the same basic residues, R576 and K964

Molecule: Nc1ncnc2c1ncn2[C@@H]1O[C@H](COP(=O)(O)OP(=O)(O)O)[C@@H](O)[C@H]1O [ADP]
- cryo-EM structure (2.85 Å) of mutant mixed with ATP, citrate and CoA (ATP-citrate lyase (ACLY) [5]): ACLY-E599Q–ATP–citrate–CoA structure highlighting the bound ADP (hydrolyzed ATP) and phospho-citryl-CoA intermediate

B1: ATP-citrate lyase (ACLY), full length human, wild type, P53396 1-1101 (enzyme)
chain: MSAKAISEQTGKELLYKFICTTSAIQNRFKYARVTPDTDWARLLQDHPWLLSQNLVVKPDQLIKRRGKLGLVGVNLTLDGVKSWLKPRLGQEATVGKATGFLKNFLIEPFVPHSQAEEFYVCIYATREGDYVLFHHEGGVDVGDVDAKAQKLLVGVDEKLNPEDIKKHLLVHAPEDKKEILASFISGLFNFYEDLYFTYLEINPLVVTKDGVYVLDLAAKVDATADYICKVKWGDIEFPPPFGREAYPEEAYIADLDAKSGASLKLTLLNPKGRIWTMVAGGGASVVYSDTICDLGGVNELANYGEYSGAPSEQQTYDYAKTILSLMTREKHPDGKILIIGGSIANFTNVAATFKGIVRAIRDYQGPLKEHEVTIFVRRGGPNYQEGLRVMGEVGKTTGIPIHVFGTETHMTAIVGMALGHRPIPNQPPTAAHTANFLLNASGSTSTPAPSRTASFSESRADEVAPAKKAKPAMPQDSVPSPRSLQGKSTTLFSRHTKAIVWGMQTRAVQGMLDFDYVCSRDEPSVAAMVYPFTGDHKQKFYWGHKEILIPVFKNMADAMRKHPEVDVLINFASLRSAYDSTMETMNYAQIRTIAIIAEGIPEALTRKLIKKADQKGVTIIGPATVGGIKPGCFKIGNTGGMLDNILASKLYRPGSVAYVSRSGGMSNELNNIISRTTDGVYEGVAIGGDRYPGSTFMDHVLRYQDTPGVKMIVVLGEIGGTEEYKICRGIKEGRLTKPIVCWCIGTCATMFSSEVQFGHAGACANQASETAVAKNQALKEAGVFVPRSFDELGEIIQSVYEDLVANGVIVPAQEVPPPTVPMDYSWARELGLIRKPASFMTSICDERGQELIYAGMPITEVFKEEMGIGGVLGLLWFQKRLPKYSCQFIEMCLMVTADHGPAVSGAHNTIICARAGKDLVSSLTSGLLTIGDRFGGALDAAAKMFSKAFDSGIIPMEFVNKMKKEGKLIMGIGHRVKSINNPDMRVQILKDYVRQHFPATPLLDYALEVEKITTSKKPNLILNVDGLIGVAFVDMLRNCGSFTREEADEYIDIGALNGIFVLGRSMGFIGHYLDQKRLKQGLYRHPWDDISYVLPEHMSM
- stoichiometry N [6]: 4

B2: ATP-citrate lyase (ACLY) E599Q catalytic mutant, full length human (enzyme, UniProt P53396 1-1101, looked up)
chain: MSAKAISEQTGKELLYKFICTTSAIQNRFKYARVTPDTDWARLLQDHPWLLSQNLVVKPDQLIKRRGKLGLVGVNLTLDGVKSWLKPRLGQEATVGKATGFLKNFLIEPFVPHSQAEEFYVCIYATREGDYVLFHHEGGVDVGDVDAKAQKLLVGVDEKLNPEDIKKHLLVHAPEDKKEILASFISGLFNFYEDLYFTYLEINPLVVTKDGVYVLDLAAKVDATADYICKVKWGDIEFPPPFGREAYPEEAYIADLDAKSGASLKLTLLNPKGRIWTMVAGGGASVVYSDTICDLGGVNELANYGEYSGAPSEQQTYDYAKTILSLMTREKHPDGKILIIGGSIANFTNVAATFKGIVRAIRDYQGPLKEHEVTIFVRRGGPNYQEGLRVMGEVGKTTGIPIHVFGTETHMTAIVGMALGHRPIPNQPPTAAHTANFLLNASGSTSTPAPSRTASFSESRADEVAPAKKAKPAMPQDSVPSPRSLQGKSTTLFSRHTKAIVWGMQTRAVQGMLDFDYVCSRDEPSVAAMVYPFTGDHKQKFYWGHKEILIPVFKNMADAMRKHPEVDVLINFASLRSAYDSTMETMNYAQIRTIAIIAQGIPEALTRKLIKKADQKGVTIIGPATVGGIKPGCFKIGNTGGMLDNILASKLYRPGSVAYVSRSGGMSNELNNIISRTTDGVYEGVAIGGDRYPGSTFMDHVLRYQDTPGVKMIVVLGEIGGTEEYKICRGIKEGRLTKPIVCWCIGTCATMFSSEVQFGHAGACANQASETAVAKNQALKEAGVFVPRSFDELGEIIQSVYEDLVANGVIVPAQEVPPPTVPMDYSWARELGLIRKPASFMTSICDERGQELIYAGMPITEVFKEEMGIGGVLGLLWFQKRLPKYSCQFIEMCLMVTADHGPAVSGAHNTIICARAGKDLVSSLTSGLLTIGDRFGGALDAAAKMFSKAFDSGIIPMEFVNKMKKEGKLIMGIGHRVKSINNPDMRVQILKDYVRQHFPATPLLDYALEVEKITTSKKPNLILNVDGLIGVAFVDMLRNCGSFTREEADEYIDIGALNGIFVLGRSMGFIGHYLDQKRLKQGLYRHPWDDISYVLPEHMSM
- binding result (cryo-EM structure): binds
